Experimental data taken from article PMC10101059, “Rational Design of Stapled Antimicrobial Peptides to Enhance Stability and In Vivo Potency against Polymicrobial Sepsis” (Microbiology Spectrum, 2023).
≈ marks a conversion by molar mass, not a printed value. Where two headings read alike, the source gives them in different places. Peptide text beside a SMILES is read from it.

Experiments:
Staphylococcus aureus = type: cell-based
Protocol: (§1) The antimicrobial assay was performed according to a modified National Committee for Clinical Laboratory Standards (NCCLS) protocol ([41], [42]). Briefly, 5 × 10^5 CFU/mL bacterial cells were treated with various peptide concentrations and incubated at 37 ± 2°C for 16 to 20 h. The lowest concentration with clear wells was recorded as the MIC for each test molecule. The clear wells were further plated in Mueller-Hinton agar (MHA) plates, followed by incubation overnight at 37 ± 2°C. After plating, the lowest concentration at which no growth was observed was recorded as the MBC. For the serum sensitivity assay, the antimicrobial activity of the peptides was tested in medium containing 50% human serum ([43], [44]).

Acinetobacter baumannii = test: microbe, parasite or virus in culture; type: cell-based
Protocol: as §1, with “[44]). The antimicrobial assay was performed in the presence of physiological ions and glucose. The test media were supplemented with MgCl2 (1 mM), CaCl2 (2 mM), NaCl (150 mM), KCl (4.5 mM), NH4Cl (6 μM) ([45], [46]), or glucose (0.2%) ([47]), followed by routine antimicrobial assay as described previously. For the pH sensitivity assay, the antimicrobial assay was performed in media adjusted to pH values ranging from 4 to 12. To estimate the effects of temperature on antimicrobial activity, the peptide was incubated for 1 h at temperatures ranging from 40 to 100°C ([48]), followed by the antimicrobial assay as described above.” for “[44]).”

Enterobacter aerogenes = test: microbe, parasite or virus in culture; type: cell-based
Protocol: as §1

Escherichia coli = test: microbe, parasite or virus in culture; type: cell-based
Protocol: as §1

[1] = tested on: NDM-1 Klebsiella pneumoniae; test: microbe, parasite or virus in culture; type: cell-based; details: NDM-1
Protocol: as §1

Pseudomonas aeruginosa = test: microbe, parasite or virus in culture; type: cell-based
Protocol: as §1

MDR A. baumannii 1019 [2] = test: microbe, parasite or virus in culture; type: cell-based, Acinetobacter baumannii; details: MDR 1019
Protocol: as §1

MDR A. baumannii 1033 [3] = test: microbe, parasite or virus in culture; type: cell-based, Acinetobacter baumannii; details: MDR 1033
Protocol: as §1

MDR A. baumannii 14B0091 = test: microbe, parasite or virus in culture; type: cell-based, Acinetobacter baumannii; details: MDR 14B0091
Protocol: as §1

MDR A. baumannii 1607 [4] = test: microbe, parasite or virus in culture; type: cell-based, Acinetobacter baumannii; details: MDR 1607
Protocol: as §1

MDR A. baumannii 1702 [5] = test: microbe, parasite or virus in culture; type: cell-based, Acinetobacter baumannii; details: MDR 1702
Protocol: as §1

MDR A. baumannii 2088 [6] = test: microbe, parasite or virus in culture; type: cell-based, Acinetobacter baumannii; details: MDR 2088
Protocol: as §1

MDR A. baumannii 2962 [7] = test: microbe, parasite or virus in culture; type: cell-based, Acinetobacter baumannii; details: MDR 2962
Protocol: as §1

MDR A. baumannii 2982 [8] = test: microbe, parasite or virus in culture; type: cell-based, Acinetobacter baumannii; details: MDR 2982
Protocol: as §1

MDR A. baumannii 2997 [9] = test: microbe, parasite or virus in culture; type: cell-based, Acinetobacter baumannii; details: MDR 2997
Protocol: as §1

MDR A. baumannii 2998 [10] = test: microbe, parasite or virus in culture; type: cell-based, Acinetobacter baumannii; details: MDR 2998
Protocol: as §1

MDR A. baumannii 3618 [11] = test: microbe, parasite or virus in culture; type: cell-based, Acinetobacter baumannii; details: MDR 3618
Protocol: as §1

MDR A. baumannii 921 [12] = test: microbe, parasite or virus in culture; type: cell-based, Acinetobacter baumannii; details: MDR 921
Protocol: as §1

MDR A. baumannii 1019 [13] = test: microbe, parasite or virus in culture; type: cell-based, Acinetobacter baumannii
Protocol: (§2) The FICI was measured using a standard checkerboard microdilution assay ([57]). Two-fold dilutions of antibiotics were made across the x axis, and two-fold peptide dilutions were made across the y axis. Next, bacteria were added at 5 × 10^5 CFU/well (A. baumannii), followed by incubation at 37 ± 2°C for 16 to 20 h. FIC indices were calculated according to the following equations: FICI = FIC1 + FIC2; FIC1 = (MIC12 combined)/MIC1; FIC2 = (MIC12 combined)/MIC2. The combined efficacy was estimated as follows: FICI ≤ 0.5, synergistic; 0.5 to 1, additive; 1 to 2, indifferent; ≥2, antagonistic.

MDR A. baumannii 14B001 = test: microbe, parasite or virus in culture; type: cell-based, Acinetobacter baumannii
Protocol: as §2

MDR A. baumannii 1607 [14] = test: microbe, parasite or virus in culture; type: cell-based, Acinetobacter baumannii
Protocol: as §2

MDR A. baumannii 1702 [15] = test: microbe, parasite or virus in culture; type: cell-based, Acinetobacter baumannii
Protocol: as §2

MDR A. baumannii 2962 [16] = test: microbe, parasite or virus in culture; type: cell-based, Acinetobacter baumannii
Protocol: as §2

MDR A. baumannii 2982 [17] = test: microbe, parasite or virus in culture; type: cell-based, Acinetobacter baumannii
Protocol: as §2

MDR A. baumannii 921 [18] = test: microbe, parasite or virus in culture; type: cell-based, Acinetobacter baumannii
Protocol: as §2

MDR A. baumannii 1033 [19] = test: Checkerboard microdilution assay (FICI); type: cell-based, Acinetobacter baumannii
Protocol: as §2

MDR A. baumannii 2088 [20] = test: Checkerboard microdilution assay (FICI); type: cell-based, Acinetobacter baumannii
Protocol: as §2

MDR A. baumannii 2997 [21] = test: Checkerboard microdilution assay (FICI); type: cell-based, Acinetobacter baumannii
Protocol: as §2

MDR A. baumannii 2998 [22] = test: Checkerboard microdilution assay (FICI); type: cell-based, Acinetobacter baumannii
Protocol: as §2

MDR A. baumannii 3618 [23] = test: Checkerboard microdilution assay (FICI); type: cell-based, Acinetobacter baumannii
Protocol: as §2

NDM1 K. pneumoniae = test: microbe, parasite or virus in culture; type: cell-based, Klebsiella pneumoniae
E. aerogenes = test: microbe, parasite or virus in culture; type: cell-based, Enterobacter aerogenes
E. coli = test: microbe, parasite or virus in culture; type: cell-based, Escherichia coli
S enterica = test: Checkerboard microdilution assay (FICI); type: cell-based, Salmonella enterica
P. aeruginosae = test: microbe, parasite or virus in culture; type: cell-based, Pseudomonas aeruginosa
[24] = Acinetobacter baumannii, read-out: Single drug treatment MIC
[25] = MIC of each agent in combination, TP4-3 and D

## CC[C@H](C)[C@H](NC(=O)[C@H](C)NC(=O)[C@H](CCCCN)NC(=O)CNC(=O)[C@H](C)NC(=O)[C@H](CO)NC(=O)[C@H](Cc1ccccc1)NC(=O)[C@H](CC(C)C)NC(=O)CNC(=O)CNC(=O)[C@@H](NC(=O)[C@@H](NC(=O)[C@H](Cc1c[nH]cn1)NC(=O)[C@H](Cc1c[nH]cn1)NC(=O)[C@@H](NC(=O)[C@@H](N)Cc1ccccc1)[C@@H](C)CC)[C@@H](C)CC)[C@@H](C)CC)C(=O)N[C@@H](Cc1c[nH]cn1)C(=O)N[C@@H](CCCNC(=N)N)C(=O)N[C@@H](CC(C)C)C(=O)N[C@H](C(=O)N[C@@H](CCCNC(=N)N)C(=O)N[C@@H](CCCNC(=N)N)C(=O)N[C@@H](CCCNC(=N)N)C(=O)N[C@@H](CCCNC(=N)N)C(=O)N[C@@H](CCCNC(=N)N)C(=O)O)[C@@H](C)CC [TP4, tilapia piscidin 4] (H-FIHHIIGGLFSAGKAIHRLIRRRRR-OH)
Staphylococcus aureus
  MBC: 1.56 µM (≈ 4.65 µg/mL)
  MIC: 1.56 µM (≈ 4.65 µg/mL)
Acinetobacter baumannii; pH 6
  MBC: 3.13−6.25 μM
  MIC: 3.13−6.25 μM
Acinetobacter baumannii; pH 7.4, read-out: MBC
  MBC: 3.13 µM (≈ 9.33 µg/mL)
Acinetobacter baumannii; pH 7.4, read-out: MIC
  MIC: 3.13 µM (≈ 9.33 µg/mL)
Acinetobacter baumannii; pH 8
  MBC: 1.56−3.13 μM
  MIC: 1.56−3.13 μM
Acinetobacter baumannii; pH 10, read-out: MBC
  MBC: 0.78 µM (≈ 2.33 µg/mL)
Acinetobacter baumannii; pH 10, read-out: MIC
  MIC: 0.78 µM (≈ 2.33 µg/mL)
Enterobacter aerogenes
  MBC: 0.78 µM (≈ 2.33 µg/mL)
  MIC: 0.78 µM (≈ 2.33 µg/mL)
Escherichia coli
  MBC: 3.13 µM (≈ 9.33 µg/mL)
  MIC: 3.13 µM (≈ 9.33 µg/mL)
[1]
  MBC: 6.25 µM (≈ 18.6 µg/mL)
  MIC: 6.25 µM (≈ 18.6 µg/mL)
Pseudomonas aeruginosa; read-out: MBC
  MBC: 12.5 µM (≈ 37.3 µg/mL)
Pseudomonas aeruginosa; read-out: MIC
  MIC: 12.5 µM (≈ 37.3 µg/mL)
MDR A. baumannii 1019 [2]
  MBC: <1.56 µM
  MIC: <1.56 µM
MDR A. baumannii 1033 [3]; read-out: MBC
  MBC: 6.25 µM (≈ 18.6 µg/mL)
MDR A. baumannii 1033 [3]; read-out: MIC
  MIC: <1.56 µM
MDR A. baumannii 14B0091
  MBC: <1.56 µM
  MIC: <1.56 µM
MDR A. baumannii 1607 [4]
  MIC: <1.56 µM
MDR A. baumannii 1607 [4]; read-out: MBC
  MBC: <1.56 µM
MDR A. baumannii 1702 [5]; read-out: MBC
  MBC: <1.56 µM
MDR A. baumannii 1702 [5]; read-out: MIC
  MIC: <1.56 µM
MDR A. baumannii 2088 [6]; read-out: MBC
  MBC: <1.56 µM
MDR A. baumannii 2088 [6]; read-out: MIC
  MIC: <1.56 µM
MDR A. baumannii 2962 [7]
  MBC: <1.56 µM
  MIC: <1.56 µM
MDR A. baumannii 2982 [8]
  MBC: 3.13 µM (≈ 9.33 µg/mL)
  MIC: 3.13 µM (≈ 9.33 µg/mL)
MDR A. baumannii 2997 [9]; read-out: MBC
  MBC: <1.56 µM
MDR A. baumannii 2997 [9]; read-out: MIC
  MIC: <1.56 µM
MDR A. baumannii 2998 [10]
  MIC: <1.56 µM
MDR A. baumannii 2998 [10]; read-out: MBC
  MBC: <1.56 µM
MDR A. baumannii 3618 [11]
  MBC: 6.25 µM (≈ 18.6 µg/mL)
  MIC: 3.13 µM (≈ 9.33 µg/mL)
MDR A. baumannii 921 [12]
  MBC: <1.56 µM
  MIC: <1.56 µM

## C[C@H]1c2cccc(O)c2C(=O)C2=C(O)[C@]3(O)C(=O)C(C(N)=O)=C(O)[C@@H](N(C)C)[C@@H]3[C@@H](O)[C@@H]21 [D, doxycycline]
MDR A. baumannii 1019 [13]; [24]
  MIC: 100 µM
MDR A. baumannii 1019 [13]; [25]
  TP4-3 and meropenem combined MIC: 12.5 µM
MDR A. baumannii 14B001; [24]
  MIC: 50 µM
MDR A. baumannii 14B001; [25]
  TP4-3 and meropenem combined MIC: 50 µM
MDR A. baumannii 1607 [14]; [24]
  MIC: 100 µM
MDR A. baumannii 1607 [14]; [25]
  TP4-3 and meropenem combined MIC: 25 µM
MDR A. baumannii 1702 [15]; [24]
  MIC: 50 µM
MDR A. baumannii 1702 [15]; [25]
  TP4-3 and meropenem combined MIC: 12.5 µM
MDR A. baumannii 2962 [16]; [24]
  MIC: 100 µM
MDR A. baumannii 2962 [16]; [25]
  TP4-3 and meropenem combined MIC: 25 µM
MDR A. baumannii 2982 [17]; [24]
  MIC: 50 µM
MDR A. baumannii 2982 [17]; [25]
  TP4-3 and meropenem combined MIC: 25 µM
MDR A. baumannii 921 [18]; [24]
  MIC: 200 µM
MDR A. baumannii 921 [18]; [25]
  TP4-3 and meropenem combined MIC: 25 µM
MDR A. baumannii 1033 [19]; [24]
  MIC: 50 µM
MDR A. baumannii 1033 [19]; [25]
  TP4-3 and meropenem combined MIC: 12.5 µM
MDR A. baumannii 2088 [20]; [24]
  MIC: 100 µM
MDR A. baumannii 2088 [20]; [25]
  TP4-3 and meropenem combined MIC: 12.5 µM
MDR A. baumannii 2997 [21]; [24]
  MIC: 50 µM
MDR A. baumannii 2997 [21]; [25]
  TP4-3 and meropenem combined MIC: 25 µM
MDR A. baumannii 2998 [22]; [24]
  MIC: 50 µM
MDR A. baumannii 2998 [22]; [25]
  TP4-3 and meropenem combined MIC: 12.5 µM
MDR A. baumannii 3618 [23]; [24]
  MIC: 100 µM
MDR A. baumannii 3618 [23]; [25]
  TP4-3 and meropenem combined MIC: 25 µM
NDM1 K. pneumoniae; Klebsiella pneumoniae, read-out: Single drug treatment MIC
  MIC: 25 µM (≈ 11.1 µg/mL)
NDM1 K. pneumoniae; [25]
  TP4-3 and meropenem combined MIC: 3.13 µM
E. aerogenes; Klebsiella aerogenes, read-out: Single drug treatment MIC
  MIC: 3.13 µM (≈ 1.39 µg/mL)
E. aerogenes; [25]
  TP4-3 and meropenem combined MIC: 0.78 µM
E. coli; Escherichia coli, read-out: Single drug treatment MIC
  MIC: 50 µM (≈ 22.2 µg/mL)
E. coli; [25]
  TP4-3 and meropenem combined MIC: 0.78 µM
S enterica; [25]
  TP4-3 and meropenem combined MIC: 1.56 µM
S enterica; Salmonella enterica, read-out: Single drug treatment MIC
  MIC: 6.25 µM
P. aeruginosae; [25]
  TP4-3 and meropenem combined MIC: 12.5 µM
P. aeruginosae; Pseudomonas aeruginosa, read-out: Single drug treatment MIC
  MIC: 6.25 µM (≈ 2.78 µg/mL)
